Data on three compounds can be found in the NIST ThermoML archive (doi:10.1016/j.jct.2004.09.002).

Numbers after ± are expanded uncertainties.

The conditions of data set [1]: 293.15 K; 101.33 kPa; Liquid; Vibrating tube method.
The nature of data set [2]: refractive index (Na D-line) (dimensionless). The note with it: 293.15 K; 101.33 kPa; Liquid; Standard Abbe refractometry.
The nature of data set [3]: Boiling temperature at pressure P. The note with it: 101.33 kPa; Liquid; Fischer boiling point apparatus.

As usually defined, the mass density is mass per unit of volume. The refractive index is the speed of light in vacuum divided by its phase velocity in the sample.

With `CCCC(=O)O` [butanoic acid], in data set [1], the mass density is on record as 957.6 ± 0.5 kg/m3. Also, the refractive index in data set [2] came out at 1.3982 ± 0.0012.
Take `CC(=O)OC1CCCCC1` [cyclohexyl ethanoate]: the mass density in data set [1] was 970.3 ± 1 kg/m3. Also, in data set [3], the “Boiling temperature at pressure P” value was determined as 177.30 ± 0.2 °C. Besides, the refractive index in data set [2] was 1.4434 ± 0.0013.
Take `O` [water]: the “Boiling temperature at pressure P” value in data set [3] worked out at 100.1 ± 0.2 °C. Also, in data set [2], the refractive index was 1.3324 ± 0.0012.
